Experimental data: patent publication US8003675B2 (priority 2006, dated 2011)

Tests used:
Stagonospora nodorum = assay: Test for preventive effect on wheat glume blotch; format: in vivo; conditions: wheat (Nohrin No. 61), foliar spray 500 ppm, examined 12 days after inoculation
Method: Disease development degree=[(n0×0+n1×1+n2×2+n3×3+n4×4)/4×N]×100 [Expression 2]
n4: number of leaves of disease development degree 4 Protective value=[1−(disease development degree in treated plants)/(disease development degree in untreated plants)]×100 [Expression 3]
10 wheat seeds (variety: Nohrin No. 61) were sowed in a plastic cup of 5.5 cm in diameter and were grown in a greenhouse for 7 days. One of wettable powders prepared in accordance with Example 5 was diluted with water so that the concentration of active ingredient became 500 ppm, a spreader (brand name: KUMITEN) was added for the dilution factor to be 3,000 times, and a sufficient amount of the resulting solution was sprayed onto the leaves of wheat (1.5- to 2-leaf stage) using a spray gun. After air-drying, a suspension of the pycniospores of Stagonospora nodorum was sprayed for inoculation. Immediately thereafter, the wheat leaves were transferred into a moist chamber of 25° C. and allowed to stand under a bright condition for 48 hours for infection. Then, the wheat leaves were transferred into the greenhouse and, 12 days after the inoculation, the disease development index of each first leaf was examined according to the standard of Table 15. A disease development degree was calculated from the above expression 2. A protective value (%) was calculated from the above expression 3 and evaluated according to the standard of Table 16.

[1] = test system: Colletotrichum orbiculare; assay: Test for preventive effect for cucumber anthracnose; format: in vivo; conditions: cucumber (Sagamihanjiro), soil drench 10 ml at 1 ppm, inoculated 7 days later, lesions counted 7 days later
Method: Four cucumber seeds (variety: Sagamihanjiro) were sowed in a plastic cup of 5.5 cm in diameter, at a depth of 2 cm, and were grown in a greenhouse for 7 days. One of wettable powders prepared according to Example 5 was diluted with water so that the concentration of active ingredient became a given level. 10 ml of the dilution was poured into the soil at the root of young cucumber seedlings having cotyledons. 7 days later, a conidia suspension (10^5 to 10^6/ml) of Colletotrichum orbiculare which had been cultured in a PDA plate medium, was uniformly inoculated to the cucumber plant by hand spraying. The cup was allowed to stand, for infection, in a moist chamber of 25° C. for 24 hours. Then, the cup was allowed to stand on a basin in a glass greenhouse and, 7 day later, the number of lesions of all cotyledons in pot was examined. A protective value was calculated from the above expression 1 and evaluated according to the standard of Table 12.
Using the above-shown comparative compound, a wettable powder was prepared according to Example 5. A protective value thereof was calculated in the same manner as in the above Test Example.

Pyricularia oryzae = format: in vivo; conditions: paddy rice (Aichi Asahi), submerged application, 10 g a.i./10 a, inoculated 10 days after treatment, lesions counted 6 days after inoculation

Cc1cc(COC(=O)c2cc(C)ns2)sn1 [Comparative compound, reference compound]
Evaluation (Stagonospora nodorum): D (protective value: less than 25%)
Evaluation [1]: C (protective value: less than 80.0% to 50.0% or more)
Protective value [1]: 73.3%
Evaluation (Pyricularia oryzae): D (protective value: less than 50.0%)
Protective value (Pyricularia oryzae): 45.9%

CC(=O)OCc1snc(Cl)c1Cl [I-1]
Evaluation [1]: B (protective value: less than 90.0% to 80.0% or more)
Protective value [1]: 86.9%
Evaluation (Pyricularia oryzae): A (protective value: 100% to 90.0% or more)
Protective value (Pyricularia oryzae): 96.1%

CC=CC=CC(=O)OCc1snc(Cl)c1Cl [I-24]
Evaluation [1]: B (protective value: less than 90.0% to 80.0% or more)
Protective value [1]: 89.1%
Evaluation (Pyricularia oryzae): A (protective value: 100% to 90.0% or more)
Protective value (Pyricularia oryzae): 95.2%

CC(=S)OCc1snc(Cl)c1Cl [I-28, (3,4-dichloroisothiazol-5-yl)methyl thioacetate]
Evaluation (Pyricularia oryzae): C (protective value: less than 80.0% to 50.0% or more)
Protective value (Pyricularia oryzae): 79.9%

O=C(OCc1snc(Cl)c1Cl)c1ccccc1 [II-1, (3,4-dichloroisothiazol-5-yl)methyl benzoate]
Evaluation [1]: B (protective value: less than 90.0% to 80.0% or more)
Protective value [1]: 89.1%
melting point: 79 to 80 °C
Evaluation (Pyricularia oryzae): A (protective value: 100% to 90.0% or more)
Protective value (Pyricularia oryzae): 92.3%

Cc1ccccc1C(=O)OCc1snc(Cl)c1Cl [II-5]
Evaluation (Stagonospora nodorum): A (protective value: 100% to 75% or more)
Evaluation (Pyricularia oryzae): A (protective value: 100% to 90.0% or more)
Protective value (Pyricularia oryzae): 94.6%

O=C(OCc1snc(Cl)c1Cl)c1ccccc1Cl [II-14]
Evaluation (Stagonospora nodorum): B (protective value: less than 75% to 50% or more)
Evaluation (Pyricularia oryzae): A (protective value: 100% to 90.0% or more)
Protective value (Pyricularia oryzae): 92.4%

N#Cc1ccccc1C(=O)OCc1snc(Cl)c1Cl [II-17]
Evaluation (Pyricularia oryzae): A (protective value: 100% to 90.0% or more)
Protective value (Pyricularia oryzae): 98.2%

COC(=O)c1ccccc1C(=O)OCc1snc(Cl)c1Cl [II-24]
Evaluation (Stagonospora nodorum): A (protective value: 100% to 75% or more)
Evaluation (Pyricularia oryzae): A (protective value: 100% to 90.0% or more)
Protective value (Pyricularia oryzae): 98.3%

O=C(OCc1snc(Cl)c1Cl)c1ccccc1[N+](=O)[O-] [II-55]
Evaluation (Stagonospora nodorum): A (protective value: 100% to 75% or more)
Evaluation (Pyricularia oryzae): A (protective value: 100% to 90.0% or more)
Protective value (Pyricularia oryzae): 98.8%

COc1ccccc1C(=O)OCc1snc(Cl)c1Cl [II-57]
Evaluation (Stagonospora nodorum): A (protective value: 100% to 75% or more)
Evaluation (Pyricularia oryzae): A (protective value: 100% to 90.0% or more)
Protective value (Pyricularia oryzae): 98.4%

CS(=O)(=O)c1ccccc1C(=O)OCc1snc(Cl)c1Cl [II-66]
Evaluation (Stagonospora nodorum): A (protective value: 100% to 75% or more)
Evaluation (Pyricularia oryzae): A (protective value: 100% to 90.0% or more)
Protective value (Pyricularia oryzae): 97.8%

Cc1cccc(C)c1C(=O)OCc1snc(Cl)c1Cl [II-77]
Evaluation (Stagonospora nodorum): A (protective value: 100% to 75% or more)
Evaluation (Pyricularia oryzae): C (protective value: less than 80.0% to 50.0% or more)
Protective value (Pyricularia oryzae): 74.1%

O=C(OCc1snc(Cl)c1Cl)c1c(Cl)cccc1Cl [II-78]
Evaluation (Stagonospora nodorum): B (protective value: less than 75% to 50% or more)
Evaluation (Pyricularia oryzae): C (protective value: less than 80.0% to 50.0% or more)
Protective value (Pyricularia oryzae): 77.5%

COc1cccc(OC)c1C(=O)OCc1snc(Cl)c1Cl [II-79]
Evaluation (Stagonospora nodorum): A (protective value: 100% to 75% or more)
Evaluation (Pyricularia oryzae): A (protective value: 100% to 90.0% or more)
Protective value (Pyricularia oryzae): 92.3%

Cc1cccc([N+](=O)[O-])c1C(=O)OCc1snc(Cl)c1Cl [II-82]
Evaluation (Stagonospora nodorum): A (protective value: 100% to 75% or more)
Evaluation (Pyricularia oryzae): B (protective value: less than 90.0% to 80.0% or more)
Protective value (Pyricularia oryzae): 88.0%
